From ChEMBL document CHEMBL4819106, “Aminopyrazole based CDK9 PROTAC sensitizes pancreatic cancer cells to venetoclax” (Bioorg Med Chem Lett, 2021)

Columns and labels:
[1] = biological target: T1, Cyclin-dependent kinase 5 (Homo sapiens, UniProt Q00535); test: Inhibition of CDK5 (unknown origin)
[2] = biological target: T2, Cyclin-dependent kinase 9 (Homo sapiens, UniProt P50750); test: Inhibition of CDK9 (unknown origin)
[3] = biological target: T1, Cyclin-dependent kinase 5; test: Binding affinity to CDK5 (unknown origin)
[4] = biological target: T2, Cyclin-dependent kinase 9; test: Binding affinity to CDK9 (unknown origin)

T1 sequence (Q00535 whole entry): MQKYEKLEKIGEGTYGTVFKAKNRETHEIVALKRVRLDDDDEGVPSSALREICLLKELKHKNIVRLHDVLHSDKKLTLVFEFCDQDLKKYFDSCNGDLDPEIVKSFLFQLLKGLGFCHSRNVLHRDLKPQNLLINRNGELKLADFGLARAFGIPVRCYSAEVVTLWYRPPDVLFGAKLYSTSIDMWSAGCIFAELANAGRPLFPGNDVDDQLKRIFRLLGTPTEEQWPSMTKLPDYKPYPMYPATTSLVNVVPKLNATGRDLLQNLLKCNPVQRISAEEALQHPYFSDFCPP
T2 sequence (P50750 whole entry): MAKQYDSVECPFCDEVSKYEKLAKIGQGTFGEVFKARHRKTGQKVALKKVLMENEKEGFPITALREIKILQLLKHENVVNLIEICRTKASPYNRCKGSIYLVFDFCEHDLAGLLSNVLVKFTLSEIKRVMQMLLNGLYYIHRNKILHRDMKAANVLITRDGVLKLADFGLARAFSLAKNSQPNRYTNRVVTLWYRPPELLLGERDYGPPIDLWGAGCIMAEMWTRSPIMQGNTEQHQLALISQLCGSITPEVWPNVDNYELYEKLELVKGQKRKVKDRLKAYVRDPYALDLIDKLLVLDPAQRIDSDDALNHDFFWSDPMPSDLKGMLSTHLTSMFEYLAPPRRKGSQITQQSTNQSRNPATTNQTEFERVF

COc1ccc(CC(=O)Nc2cc(C3CCC3)[nH]n2)cc1
IC50 [1]: 32 nM | IC50 [2]: 1080 nM | Kd [3]: 230 nM | Kd [4]: 1060 nM
